The source of these data is article PMC10721898, “C5 methylation confers accessibility, stability and selectivity to picrotoxinin” (Nature Communications, 2023).

The target of one assay is T1, Drosophila RDL (Drosophila melanogaster, UniProt P25123).
T1 construct: expressed in transfected cells; host or cells: Xenopus oocytes (Ecocyte, Austin, TX) microinjected with capped cRNA
T1 sequence (P25123 45-606): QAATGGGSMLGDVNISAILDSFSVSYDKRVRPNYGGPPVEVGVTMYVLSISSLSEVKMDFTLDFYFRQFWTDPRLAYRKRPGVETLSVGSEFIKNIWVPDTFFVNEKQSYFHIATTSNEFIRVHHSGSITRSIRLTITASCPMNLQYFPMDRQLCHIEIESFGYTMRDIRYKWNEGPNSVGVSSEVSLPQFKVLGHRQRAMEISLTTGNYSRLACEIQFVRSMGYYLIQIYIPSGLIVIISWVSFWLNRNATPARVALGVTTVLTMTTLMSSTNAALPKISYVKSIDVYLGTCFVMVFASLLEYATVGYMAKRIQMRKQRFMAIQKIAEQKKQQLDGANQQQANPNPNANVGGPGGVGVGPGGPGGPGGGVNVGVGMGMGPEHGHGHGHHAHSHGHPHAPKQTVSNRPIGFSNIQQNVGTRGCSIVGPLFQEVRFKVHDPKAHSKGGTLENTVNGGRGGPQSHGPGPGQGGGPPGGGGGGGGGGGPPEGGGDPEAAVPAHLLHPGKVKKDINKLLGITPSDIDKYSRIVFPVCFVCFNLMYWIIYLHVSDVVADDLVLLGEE
Put plainly: RDL receptors assay: two-electrode voltage clamp electrophysiology in Xenopus oocytes. In kind it is cell-based. On the procedure: 5. RDL receptors binding assay
The Drosophila RDL sequence (NP_01261616.1) was cloned into the pGH19 backbone via Gibson assembly for capped cRNA synthesis using the T7 mMessage mMachine kit (Invitrogen). cRNA samples were stored at - 80 °C until use. Ready to inject Xenopus oocytes were obtained from Ecocyte (Austin, TX) and microinjected using a Nanoinject III (Drummond Scientific) with 4 nL of cRNA (1 μg/μL). The oocytes were then incubated at 16 °C in ND96 storage solution (93.5 mM NaCl, 2 mM KCl, 1.8 mM CaCl 2·2H2O, 2 mM MgCl 2·6H2O, 5 mM HEPES at pH 7.5). Recording were made 1 -6 days post injection.
Electrophysiology experiments were performed using an automated two -electrode voltage clamp set -up (Roboocyte 2, Mutlichannel Systems). Recording head were filled with 3M KCl and gave resistan ce of 100-2000 kΩ in medium. Membrane potential was held at -60 mV and current signal was sampled at 20 kHz.
Experiments were performed at room temperature using Modified Barth’s Saline (MBS) (88 mM NaCl, 1 mM KCl, 2.4 mM NaHCO 3, 15 mM HEPES, 0.3 mM Ca(NO3)2, 0.41 mM CaCl 2, and 0.82 mM MgSO 4·7H2O at pH 7.4). Oocytes were perfused with MBS at 5 mL/min in all assays. GABA and all compounds were dissolved in MBS and a 0.1% DMSO negative control was utilized to correct for any solvent effect.
Initial block potential of each compound was assessed utilizing a pre -incubation method (MBS (30 sec), 10 μM GABA (15 sec), MBS wash (60 sec), compound (60 sec), compound + 10 μM GABA (15 sec), compound (60 sec), compound + 10 μM GABA (15 sec), MBS wash (60 sec) with 10 μM of each test compound. The maximum signal of the second co -application was compared to the initial GABA response to determine the % block and then standardized against the corresponding value of the 0.1% DMSO control. Dose responses were performed for any compound showing >50% block in the initial test using 10, 1, and 0.1 μM. The IC50 values were fit using an inhibitor vs response 4 -parameter fit (GraphPad Prism 8.1.2).
Supplementary Table 9. IC50 values of test compound
(§1) Compound IC50 (µM) Compound IC50 (µΜ)
(In general: Two-electrode voltage clamp is typically applied to oocytes expressing channels or transporters.)

Another assay relates to RDL. The settings on record: cited from earlier work.
The next assay addresses rat GABAA ion channel. The experiment in a line: Non-selective rat GABAA ion channel [3H]TBOB binding (antagonist radioligand) assay, rat cerebral cortex. The following applies: [3H]TBOB displacement, n = 1. As to the method: The structurally privileged 5-methyl series was assayed for binding to both GABAA receptors (rat cortex membrane preparations) and RDL (expressed in Xenopus oocytes) and compared directly to the parent PXN (C5-H) series. The parallel series of PXN and 5MePXN analogs allowed us to interrogate the effect of the synthetically-enabling and stabilizing C5 methyl. […]
4. Rat GABAA receptors binding assay
Non-selective rat GABAA ion channel [3H] TBOB binding (Antagonist Radioligand) assay was conducted by Eurofins Pharma Discovery Service of Eurofins Cerep, France.
Compound binding was calculated as a % inhibition of the binding of the radioactive ly labeled ligand [3H] TBOB (t‐[3H]Butylbicycloorthobenzoate) for rat GABAA ion channels.9 A 20.0 mM stock solution was prepared in DMSO from each test compound to evaluate radioligand displacement of [3H] TBOB from rat cerebral cortex GABAA receptors at different concentrations.
The results are expressed as a percent of control specific binding measured specific binding*100 […]
and as a percent inhibition of control specific binding
100 − (measured specific binding*100) […]
obtained in the presence of the test compounds.
The IC50 values (concentration causing a half -maximal inhibition of control specific binding) and Hill coefficients (nH) were determined by non -linear regression analysis of th e competition curves generated with mean replicate values using Hill equation curve fitting […]
where Y = specific binding, A = left asymptote of the curve, D = right asymptote of the curve , C = compound concentration, C 50 = IC50, and nH = slope factor. This analysis was performed using software developed at Cerep (Hill software) and validated by comparison with data generated by th e commercial software SigmaPlot® 4.0 for Windows ® (© 1997 by SPSS Inc.).
The inhibition constants (K i) were calculated using the Cheng Prusoff equation where L = concentration of radioligand in the assay, and KD = affinity of the radioligand for the recept or. A scatchard plot is used to determine the K D.
Supplementary Table 8. IC50 values of test compound
as §1

In a further assay the test system is GABAA and RDL receptors. Details: method as in PMID 8982503. The following applies: cited from earlier work.
The mark [1] stands for this setting: Supplementary Table 8 (PXN series).
[2] abbreviates: block of 10 μM GABA response, pre-incubation, -60 mV, Supplementary Table 9 (PXN series), n = 4, read-out: IC50.
[3] abbreviates: block of 10 μM GABA response, pre-incubation, -60 mV, Supplementary Table 9 (5MePXN series), n = 4, read-out: IC50.
Where [4] appears, read: Supplementary Table 8 (5MePXN series).

Read-outs that look alike come from different tables or passages of the source.

For the compound `CC(C)(O)[C@@H]1[C@H]2OC(=O)[C@@H]1[C@]1(O)C[C@H]3O[C@]34C(=O)O[C@H]2[C@]14C` [PTN, picrotin, reference compound], the IC50 was determined as 0.834 µM at Drosophila RDL and 54 µM at rat GABAA ion channel (setting [1]). Further, in the assay with RDL, the “reported activity at RDL” value is “inactivity”.
On to `CC(C)C1C2OC(=O)C1C1(F)CC3OC34C(=O)OC2C14C` (stereo not shown) [6FHPXN], for which the IC50 is 0.561 µM at Drosophila RDL (setting [2]) and 6.5 µM at rat GABAA ion channel (setting [1]).
Taken in the same sequence, the figures for `C=C(C)C1C2OC(=O)C1C1(O)CC=C3C(=O)OC2C31C` (stereo not shown) [8,9doPXN] were 2.6 µM and 0.55 µM.
In the case of `CC1(C2C3OC(=O)C2C2(O)CC4OC45C(=O)OC3C25C)CC1` (stereo not shown) [CypPXN], the IC50 against Drosophila RDL worked out at 0.693 µM; at rat GABAA ion channel (setting [1]), 0.39 µM.
Regarding `C=C(C)C1C2OC(=O)C1(C)C1(F)CC3OC34C(=O)OC2C41C` (stereo not shown) [6F5MePXN], the IC50 on Drosophila RDL (setting [3]) was 0.593 µM; at rat GABAA ion channel (setting [4]) it was 14 µM.
As for `CC(C)(C)C1C2OC(=O)C1C1(O)CC3OC34C(=O)OC2C14C` (stereo not shown) [12MePXN], the half-maximal inhibitory concentration (IC50) on Drosophila RDL (setting [2]) worked out at 0.676 µM; at rat GABAA ion channel (setting [1]), 0.31 µM.
Consider `CC(C)(C)C1C2OC(=O)C1(C)C1(O)CC3OC34C(=O)OC2C41C` (stereo not shown) [12Me5MePXN], for which the IC50 on Drosophila RDL (setting [3]) worked out at 2.88 µM; on rat GABAA ion channel (setting [4]) it was 7.4 µM.
The like results for `CC(C)(F)C1C2OC(=O)C1(C)C1(F)CC3OC34C(=O)OC2C41C` (stereo not shown) [6F12F5MePXN] were, in that order, 0.994 µM and over 200 µM.
Consider `CC(C)(F)C1C2OC(=O)C1C1(F)CC3OC34C(=O)OC2C14C` (stereo not shown) [6F12FPXN], for which the IC50 worked out at 2.24 µM at Drosophila RDL (setting [2]) and 32 µM on rat GABAA ion channel (setting [1]).
Consider `CC(C)C1C2OC(=O)C1(C)C1(F)CC3OC34C(=O)OC2C41C` (stereo not shown) [6FH5MePXN], for which the IC50 on Drosophila RDL (setting [3]) turned out to be 2.74 µM; at rat GABAA ion channel (setting [4]) it was 52 µM.
In the case of `CC1(C2C3OC(=O)C2(C)C2(O)CC4OC45C(=O)OC3C52C)CC1` (stereo not shown) [Cyp5MePXN], the concentration for half-maximal inhibition (IC50) at Drosophila RDL (setting [3]) amounted to 1.61 µM; at rat GABAA ion channel (setting [4]), 7.7 µM.
As to `CC(C)(F)C1C2OC(=O)C1(C)C1(O)CC3OC34C(=O)OC2C41C` (stereo not shown) [12F5MePXN], the half-maximal inhibitory concentration (IC50) at Drosophila RDL (setting [3]) is over 10 µM; on rat GABAA ion channel (setting [4]), 100 µM.
For `CC(C)(F)C1C2OC(=O)C1C1(O)CC3OC34C(=O)OC2C14C` (stereo not shown) [12FPXN], the IC50 was over 10 µM at Drosophila RDL (setting [2]) and 5.4 µM on rat GABAA ion channel (setting [1]).
As for `CC(C)(O)C1C2OC(=O)C1(C)C1(O)CC3OC34C(=O)OC2C41C` (stereo not shown) [5MePTN], the IC50 on Drosophila RDL (setting [3]) was over 10 µM; on rat GABAA ion channel (setting [4]) it was over 200 µM.
As to `CC(C)(O)C1C2OC(=O)C1C1(F)CC3OC34C(=O)OC2C14C` (stereo not shown) [6FPTN], the IC50 at Drosophila RDL (setting [2]) is 4.92 µM; on rat GABAA ion channel (setting [1]) it was 56 µM.
Take `CC(C)(O)C1C2OC(=O)C1(C)C1(F)CC3OC34C(=O)OC2C41C` (stereo not shown) [6F5MePTN]: the IC50 is 1.55 µM at Drosophila RDL (setting [3]) and over 200 µM on rat GABAA ion channel (setting [4]).
The like results for `CC(C)C1C2OC(=O)C1(C)C1(O)CC3OC34C(=O)OC2C41C` (stereo not shown) [H5MePXN] were, in that order, over 10 µM and 23 µM.
Regarding picrodendrin O, in the assay with GABAA and RDL receptors, the “selectivity index over GABAA” value is listed as 76 fold.
For `C=C(C)C1C2OC(=O)C1(C)C1(O)CC=C3C(=O)OC2C31C` (stereo not shown) [8,9do5MePXN], the half-maximal inhibitory concentration (IC50) was determined as 4.41 µM at Drosophila RDL (setting [3]) and 9.2 µM at rat GABAA ion channel (setting [4]).
As for `C=C(C)C1C2OC(=O)C1C1(F)CC3OC34C(=O)OC2C14C` (stereo not shown) [6FPXN], the IC50 at Drosophila RDL (setting [2]) is 1.05 µM; on rat GABAA ion channel (setting [1]), 0.43 µM. In the assay with RDL, the “reported activity at RDL” value is “lose channel blocking ability”.
On to `CC(C)C1C2OC(=O)C1C1(O)CC3OC34C(=O)OC2C14C` (stereo not shown) [HPXN], for which the IC50 on Drosophila RDL was found to be 1.07 µM; on rat GABAA ion channel (setting [1]) it was 1 µM.

Broadly, the IC50 is the point on the concentration scale where inhibition reaches its midpoint.
